A value given as a limit tells only on which side of the number the result lay.

In assay [1] the target is T1, Glucocorticoid receptor (Homo sapiens, UniProt P04150).
T1 sequence (P04150 whole entry): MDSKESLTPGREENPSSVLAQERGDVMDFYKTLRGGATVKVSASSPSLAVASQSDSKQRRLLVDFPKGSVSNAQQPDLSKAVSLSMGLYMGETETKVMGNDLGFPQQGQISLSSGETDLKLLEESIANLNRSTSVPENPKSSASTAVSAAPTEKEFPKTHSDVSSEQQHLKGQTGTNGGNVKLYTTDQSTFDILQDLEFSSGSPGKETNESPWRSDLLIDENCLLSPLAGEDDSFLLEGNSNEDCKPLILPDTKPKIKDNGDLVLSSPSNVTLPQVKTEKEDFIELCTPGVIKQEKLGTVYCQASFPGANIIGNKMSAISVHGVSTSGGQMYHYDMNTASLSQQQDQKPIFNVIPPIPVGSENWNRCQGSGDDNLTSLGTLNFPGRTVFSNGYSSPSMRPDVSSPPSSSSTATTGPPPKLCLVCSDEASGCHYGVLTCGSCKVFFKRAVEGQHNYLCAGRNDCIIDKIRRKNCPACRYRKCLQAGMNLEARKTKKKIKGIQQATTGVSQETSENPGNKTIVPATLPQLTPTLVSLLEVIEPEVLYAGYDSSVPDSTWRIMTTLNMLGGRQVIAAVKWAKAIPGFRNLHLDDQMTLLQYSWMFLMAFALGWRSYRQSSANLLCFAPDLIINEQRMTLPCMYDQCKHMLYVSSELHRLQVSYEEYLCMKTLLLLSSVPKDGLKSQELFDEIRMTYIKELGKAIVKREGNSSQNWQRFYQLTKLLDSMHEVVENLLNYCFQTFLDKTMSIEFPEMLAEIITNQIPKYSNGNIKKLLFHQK
In words: Displacement of [3H]-dexamethasone human glucocorticoid receptor alpha expressed in 293 MSR cells after 60 mins by scintillation counting. Format: cell-based. For orientation: Displacement assays read how much labelled ligand stays bound in the presence of the test substance.

Assay [2] concerns the target T1, Glucocorticoid receptor. The experiment in a line: Binding affinity to glucocorticoid receptor (unknown origin) by fluorescence polarization competitive binding assay. For orientation: In fluorescence polarisation assays a small probe gives low polarisation when free and higher when bound to something large.

A word on the EC50: it is the concentration that produces a half-maximal response. Read a low EC50 as a more potent agent. Consider `CC[C@H]1OC(=O)[C@H](C)[C@@H](O[C@H]2C[C@@](C)(OC)[C@@H](O)[C@H](C)O2)[C@H](C)[C@@H](O[C@@H]2O[C@H](C)C[C@H](N(C)C)[C@H]2O)[C@](C)(O)C[C@@H](C)CN(CCCNC(=O)[C@@]2(O)[C@H](C)C[C@H]3[C@@H]4C[C@H](F)C5=CC(=O)C=C[C@]5(C)[C@@]4(F)[C@@H](O)C[C@@]32C)[C@H](C)[C@@H](O)[C@]1(C)O`, for which the figures for the concentration giving a half-maximal response (EC50) at Glucocorticoid receptor [1] and on Glucocorticoid receptor [2] were greater than 25 µM and 0.91 µM, respectively.
As for `CC[C@H]1OC(=O)[C@H](C)[C@@H](O[C@H]2C[C@@](C)(OC)[C@@H](O)[C@H](C)O2)[C@H](C)[C@@H](O[C@@H]2O[C@H](C)C[C@H](N(C)C)[C@H]2O)[C@](C)(O)C[C@@H](C)CN(CCCNC(=O)[C@H]2CC[C@H]3[C@@H]4CCC5=CC(=O)CC[C@]5(C)[C@H]4[C@@H](O)C[C@]23C)[C@H](C)[C@@H](O)[C@]1(C)O`, the values for the EC50 on Glucocorticoid receptor [1] and at Glucocorticoid receptor [2] were greater than 25 µM and greater than 10 µM, respectively.
Taken in the same sequence, the figures for `CC[C@H]1OC(=O)[C@H](C)[C@@H](O[C@H]2C[C@@](C)(OC)[C@@H](O)[C@H](C)O2)[C@H](C)[C@@H](O[C@@H]2O[C@H](C)C[C@H](N(C)C)[C@H]2O)[C@](C)(O)C[C@@H](C)CN(CCCNC(=O)[C@H]2[C@H](C)C[C@H]3[C@@H]4C[C@H](F)C5=CC(=O)C=C[C@]5(C)[C@@]4(F)[C@@H](O)C[C@@]32C)[C@H](C)[C@@H](O)[C@]1(C)O` were 0.53 µM and 0.09 µM.
Taken in the same sequence, the figures for `CC[C@H]1OC(=O)[C@H](C)[C@@H](O[C@H]2C[C@@](C)(OC)[C@@H](O)[C@H](C)O2)[C@H](C)[C@@H](O[C@@H]2O[C@H](C)C[C@H](N(C)C)[C@H]2O)[C@](C)(O)C[C@@H](C)CN(CCCNC(=O)[C@@]2(O)CC[C@H]3[C@@H]4CCC5=CC(=O)C=C[C@]5(C)[C@H]4[C@@H](O)C[C@@]32C)[C@H](C)[C@@H](O)[C@]1(C)O` were greater than 25 µM and greater than 10 µM.
As for `CC[C@H]1OC(=O)[C@H](C)[C@@H](O)[C@H](C)[C@@H](O[C@@H]2O[C@H](C)C[C@H](N(C)C)[C@H]2O)[C@](C)(O)C[C@@H](C)CN(CCCNC(=O)[C@@]2(O)[C@H](C)C[C@H]3[C@@H]4CCC5=CC(=O)CC[C@]5(C)[C@H]4[C@@H](O)C[C@@]32C)[C@H](C)[C@@H](O)[C@]1(C)O`, the concentration for a half-maximal effect (EC50) at Glucocorticoid receptor [1] is greater than 25 µM; on Glucocorticoid receptor [2] it was 6.2 µM.
For `CC[C@H]1OC(=O)[C@H](C)[C@@H](O[C@H]2C[C@@](C)(OC)[C@@H](O)[C@H](C)O2)[C@H](C)[C@@H](O[C@@H]2O[C@H](C)C[C@H](N(C)C)[C@H]2O)[C@](C)(O)C[C@@H](C)CN(CCCNC(=O)[C@@]2(O)[C@H](C)C[C@H]3[C@@H]4CCC5=CC(=O)C=C[C@]5(C)[C@@]4(F)[C@@H](O)C[C@@]32C)[C@H](C)[C@@H](O)[C@]1(C)O`, the 50% effective concentration (EC50) on Glucocorticoid receptor [1] turned out to be 23 µM; at Glucocorticoid receptor [2], 2.09 µM.
Consider `CC[C@H]1OC(=O)[C@H](C)[C@@H](O)[C@H](C)[C@@H](O[C@@H]2O[C@H](C)C[C@H](N(C)C)[C@H]2O)[C@](C)(O)C[C@@H](C)CN(CCCNC(=O)[C@@]2(O)[C@H](C)C[C@H]3[C@@H]4C[C@H](F)C5=CC(=O)C=C[C@]5(C)[C@@]4(F)[C@@H](O)C[C@@]32C)[C@H](C)[C@@H](O)[C@]1(C)O`, for which the values for the EC50 at Glucocorticoid receptor [1] and at Glucocorticoid receptor [2] were 3.36 µM and 0.69 µM, respectively.
`CC[C@H]1OC(=O)[C@H](C)[C@@H](O[C@H]2C[C@@](C)(OC)[C@@H](O)[C@H](C)O2)[C@H](C)[C@@H](O[C@@H]2O[C@H](C)C[C@H](N(C)C)[C@H]2O)[C@](C)(O)C[C@@H](C)CN(CCCNC(=O)[C@@]2(O)C(C)C[C@H]3[C@@H]4CCC5=CC(=O)C=C[C@]5(C)[C@@]4(Cl)[C@@H](O)C[C@@]32C)[C@H](C)[C@@H](O)[C@]1(C)O` (single isomer, unassigned): the concentration giving a half-maximal response (EC50) is greater than 25 µM at Glucocorticoid receptor [1] and greater than 10 µM on Glucocorticoid receptor [2].

These data come from ChEMBL document CHEMBL2311478, “Macrolactonolides: a novel class of anti-inflammatory compounds” (Bioorg Med Chem, 2013).
